Results: patent publication US9598415B2, “Compounds as modulators of RORγ” (Boehringer Ingelheim International GmbH, priority 2014, dated 2017)

Target: RORγ (Homo sapiens (Human), UniProt P51449)
Assay: Reporter Gene Assay (RGA): inhibition of RORγ transactivation of a luciferase reporter
Format: cell-based
Conditions: transiently transfected HEK 293 cells (Gal4DBD hRORC LBD), 20-24 h incubation

RORγ, sequence (P51449 269-508): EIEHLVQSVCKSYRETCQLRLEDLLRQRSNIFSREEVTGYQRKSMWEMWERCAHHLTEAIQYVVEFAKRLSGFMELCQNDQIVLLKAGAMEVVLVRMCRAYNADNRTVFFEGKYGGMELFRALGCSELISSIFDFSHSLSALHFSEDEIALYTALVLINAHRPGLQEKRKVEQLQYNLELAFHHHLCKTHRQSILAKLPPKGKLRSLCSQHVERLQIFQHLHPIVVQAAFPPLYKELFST

Row | SMILES | IC50 [nM]
1 | CCS(=O)(=O)c1ccc(CNc2nc3cnc(-c4c(C)ncnc4C4CC4)nc3n([C@@H]3C[C@H]4CC[C@@H]3C4)c2=O)nc1 [Example 220] | 390
2 | CNS(=O)(=O)c1ccc(CNc2nc3cnc(-c4c(C)ncnc4C4CC4)nc3n([C@@H](C)C3CC3)c2=O)cc1 [Example 134] | 400
3 | CCS(=O)(=O)c1ccc(CNc2nc3cnc(-c4c(OC)ncnc4C4CC4)nc3n(C(C)C)c2=O)cc1 [Example 143] | 134
